Like-named read-outs stand apart in the source and are kept apart here.
Experiments:
[1] = test system: glutamate-induced 45Ca2+ uptake into synaptosomes of rat brain cortex; test: Effect on glutamate-induced 45Ca2+ uptake into synaptosomes of rat brain cortex; format: biochemical, Wistar rats; details: for Percentage 45Ca2+ of Control (Control – 100%): 200 μM glutamate, 5 min, 37 °C
[2] = format: physicochemical

SMILES: CN1CCc2c(c3cc(F)ccc3n2CCc2n[nH]c(=S)n2C)C1 [Compound IV, 5-[2-(8-Fluoro-2-methyl-1,2,3,4-tetrahydropyrido[4,3-b]indol-5-yl)ethyl]-4-methyl-2,4-dihydro[1,2,4]triazole-3-thione]
- Percentage 45Ca2+ of Control (Control – 100%) ([1]; compound 0.01 μM): 102.0 ± 9.8%
- Percentage 45Ca2+ of Control (Control – 100%) ([1]; compound 0.1 μM): 78.7 ± 10.3%
- Percentage 45Ca2+ of Control (Control – 100%) ([1]; compound 0.5 μM): 78.7 ± 8.0%
- Percentage 45Ca2+ of Control (Control – 100%) ([1]; compound 1 μM): 83.2 ± 10.9%
- Percentage 45Ca2+ of Control (Control – 100%) ([1]; compound 5 μM): 94.7 ± 8.5%
- Percentage 45Ca2+ of Control (Control – 100%) ([1]; compound 10 μM): 93.4 ± 6.9%
- Percentage 45Ca2+ of Control (Control – 100%) ([1]; compound 50 μM): 96.9 ± 6.0%
- Percentage 45Ca2+ of Control (Control – 100%) ([1]; compound 100 μM): 87.1 ± 11.5%
- inhibition of glutamate-induced calcium ion uptake ([1]; concentration of 1 μM): ~17%
- effect on glutamate-induced calcium ion uptake, in words ([1]; concentration of 0.1–1 μM): can act as an inhibitor
- effect on glutamate-induced calcium ion uptake, in words ([1]; concentration of 5–100 μM): had no effect
- overall inhibiting activity on calcium ion uptake, in words ([1]; whole concentration range 0.01–100 μM): weak inhibitors of calcium ion uptake
- mole fraction solubility (x) ([2]; 1-octanol, 293.15 K): 2.51 x · 10^4
- A, parameter of the correlation equation lnx=A-B/T ([2]; 1-octanol, 293.15–313.15 K): 3.65 ± 0.15
- B, parameter of the correlation equation lnx=A-B/T ([2]; 1-octanol, 293.15–313.15 K): 3501 ± 46
- mole fraction solubility (x) ([2]; 1-octanol, 298.15 K): 3.01 x · 10^4
- ΔGsol0, standard molar dissolution Gibbs energy ([2]; 1-octanol, 298.15 K): 4.8 kcal/mol
- ΔHsol0, standard molar dissolution enthalpy ([2]; 1-octanol, 298.15 K): 6.96 kcal/mol
- ΔSsol0, standard molar dissolution entropy ([2]; 1-octanol, 298.15 K): 30.2 J/mol⋅K
- mole fraction solubility (x) ([2]; 1-octanol, 303.15 K): 3.68 x · 10^4
- mole fraction solubility (x) ([2]; 1-octanol, 308.15 K): 4.39 x · 10^4
- mole fraction solubility (x) ([2]; 1-octanol, 313.15 K): 5.30 x · 10^4
- mole fraction solubility (x) ([2]; Buffer pH 7.4, 293.15 K): 8.34 x · 10^6
- A, parameter of the correlation equation lnx=A-B/T ([2]; Buffer pH 7.4, 293.15–313.15 K): −2.96 ± 0.09
- B, parameter of the correlation equation lnx=A-B/T ([2]; Buffer pH 7.4, 293.15–313.15 K): 2558 ± 27
- mole fraction solubility (x) ([2]; Buffer pH 7.4, 298.15 K): 9.60 x · 10^6
- ΔGsol0, standard molar dissolution Gibbs energy ([2]; Buffer pH 7.4, 298.15 K): 6.84 kcal/mol
- ΔHsol0, standard molar dissolution enthalpy ([2]; Buffer pH 7.4, 298.15 K): 5.09 kcal/mol
- ΔSsol0, standard molar dissolution entropy ([2]; Buffer pH 7.4, 298.15 K): -24.6 J/mol⋅K
- mole fraction solubility (x) ([2]; Buffer pH 7.4, 303.15 K): 11.11 x · 10^6
- mole fraction solubility (x) ([2]; Buffer pH 7.4, 308.15 K): 12.66 x · 10^6
- mole fraction solubility (x) ([2]; Buffer pH 7.4, 313.15 K): 14.60 x · 10^6
- mole fraction solubility (x) ([2]; Hexane, 293.15 K): 3.85 x · 10^4
- A, parameter of the correlation equation lnx=A-B/T ([2]; Hexane, 293.15–313.15 K): 1.09 ± 0.1
- B, parameter of the correlation equation lnx=A-B/T ([2]; Hexane, 293.15–313.15 K): 2624 ± 30
- mole fraction solubility (x) ([2]; Hexane, 298.15 K): 4.47 x · 10^4
- ΔGsol0, standard molar dissolution Gibbs energy ([2]; Hexane, 298.15 K): 4.57 kcal/mol
- ΔHsol0, standard molar dissolution enthalpy ([2]; Hexane, 298.15 K): 5.21 kcal/mol
- ΔSsol0, standard molar dissolution entropy ([2]; Hexane, 298.15 K): 9.1 J/mol⋅K
- mole fraction solubility (x) ([2]; Hexane, 303.15 K): 5.11 x · 10^4
- mole fraction solubility (x) ([2]; Hexane, 308.15 K): 5.96 x · 10^4
- mole fraction solubility (x) ([2]; Hexane, 313.15 K): 6.81 x · 10^4

SMILES: Cc1ccc2c(c1)c1c(n2CCc2ccc(C)nc2)CCN(C)C1 [Dimebon, reference compound]
- Percentage 45Ca2+ of Control (Control – 100%) ([1]; compound 0.1 μM): 120.5 ± 3.3%
- Percentage 45Ca2+ of Control (Control – 100%) ([1]; compound 0.5 μM): 64.4 ± 12.4%
- Percentage 45Ca2+ of Control (Control – 100%) ([1]; compound 1 μM): 61.3 ± 8.1%
- Percentage 45Ca2+ of Control (Control – 100%) ([1]; compound 5 μM): 83.2 ± 4.1%
- Percentage 45Ca2+ of Control (Control – 100%) ([1]; compound 10 μM): 89.3 ± 1.2%
- Percentage 45Ca2+ of Control (Control – 100%) ([1]; compound 50 μM): 98.7 ± 8.8%
- Percentage 45Ca2+ of Control (Control – 100%) ([1]; compound 100 μM): 132.0 ± 2.9%

Reference: paper PMC6128713 (Saudi Pharmaceutical Journal : SPJ, 2018)
